The values below come from patent US12485132B2, “GPX4 inhibitors and senolytic compounds and uses thereof” (Rubedo Life Sciences, Inc., priority 2023, dated 2025).

What all share (format): cell-based
For assay [1], the system named is senescent normal human dermal fibroblasts. The experiment in a line: Rescue of compound-induced cell death by ferrostatin-1 in senescent fibroblasts. The following applies: compounds at 1.11 μM, ferrostatin-1 at 0.375 and 6 μM; 24 hours; CellTiter-Glo. An excerpt:
Cell death induced by ferroptosis-inducing agents can be characterized by rescuing the cellular response with radical trapping agents that prevent the accumulation of phospholipid hydroperoxides (Stockwell et al., Cell Chem Biol 2020 27 (4): 365-375). As such, ferrostatin-1 was identified as a potent inhibitor of ferroptosis for which a free radical trapping mechanism had been reported (Skouta et al., J Am Chem Soc 2014 136 (12): 4551-6; Zika et al., ACS Cent Sci. 2017 3 (3): 232-243; and Miotto et al., Redox Biol. 2020; 101328). To determine whether compounds 18 and 32 induce ferroptosis in senescent cells, normal human dermal fibroblasts were induced to undergo senescence by treatment with a sublethal concentration of chemotherapy (bleomycin sulfate), followed by a rest period without chemotherapy similarly to previous reports (Aoshiba et al., 2003 3:436-43). Cells were maintained in DMEM media (high glucose, 4 mM L-glutamine, no sodium pyruvate) supplemented with 10% heat-inactivated fetal bovine serum in a humidified incubator at 37° C. with 5% carbon dioxide and 5% oxygen. Cellular senescence was qualified by reduced EdU (5-ethynyl-2′-deoxyuridine) incorporation and increased SA-β-Gal (senescence-associated beta-galactosidase) staining compared to proliferating untreated cells. Senescent fibroblasts were plated into 96-well plates at a density of 10,000 cells per well. The next day, ferrostatin-1 was diluted in cell medium to reach a final concentration of 0.375 and 6 μM and was added to cells. Approximately 30 minutes after the addition of ferrostatin-1, compounds 18 and 32 at 1.11 μM, or the peptidyl transfer inhibitor puromycin at 10 μM were added to cells. Cells were incubated with the compounds for 24 hours, at which point viability was quantified using the CellTiter-Glo assay (Promega). The viability for treated cells was determined relative to untreated control cells.

The subject of another assay is senescent HEPG2 cells. The experiment in a line: Senescence assay: viability of senescent HEPG2 cells. The following applies: Homo sapiens, 24-72 hours incubation, viability by CellTiter-Glo or XTT, read-out: Absolute IC50 average HEPG2_SEN IC50. Summed up: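 A549 and HEPG2 cells made senescent by sublethal chemotherapy (bleomycin, gemcitabine, doxorubicin or 5-fluorouridine) plus recovery, verified by low EdU and high SA-β-Gal. Ten-point duplicate dosing for 24-72 h; viability by CellTiter-Glo or XTT versus untreated cells; absolute IC50 from four-parameter Hill fit.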
A general note: In ATP-based viability assays light output follows the ATP content of the culture.

The next assay concerns senescent A549 cells. The experiment in a line: Senescence assay: viability of senescent A549 cells. Particulars: Homo sapiens, 24-72 hours incubation, viability by CellTiter-Glo or XTT, read-out: Absolute IC50 average A549_SEN IC50. As to the method: Cells were maintained in DMEM media (high glucose, 4 mM L-glutamine, no sodium pyruvate) supplemented with 10% fetal bovine serum in a humidified incubator at 37° C. with 5% carbon dioxide. Senescence was induced via treatment with a sublethal concentration of chemotherapy (bleomycin, gemcitabine, doxorubicin, 5-fluorouridine), followed by a rest period without chemotherapy similarly to what is reported by others in the field (e.g., Aoshiba et al., 2003 Eur Respir J 22:436-443). Senescence was qualified by low EdU (5-ethynyl-2′-deoxyuridine) incorporation and high SA-β-Gal (senescence-associated beta-galactosidase) staining compared to proliferating untreated cells. Senescent cells were plated into 96-well plates at a density of 5-15,000 cells/well. The next day, compounds were added in duplicate across ten different concentrations spanning roughly four Log10 units. Cells were incubated with the compounds for 24-72 hours, at which point viability was quantified using CellTiter-Glo (Promega) or XTT (R&D Systems). The viability for treated cells was determined relative to untreated control cells. The log of the compound concentration vs. normalized mean viability was fit to a four parameters Hill function with variable slope. The bottom was constrained to be greater than zero. The X mean value for Y=50 was interpolated to determine the absolute IC50. The results in Table 2 indicate that many of the compounds are active in cells and can induce a dose dependent decrease in the viability of senescent HEPG2 and A549 cells.

The target in a further assay is T1, GPX4 (Homo sapiens, UniProt P36969).
T1 sequence (P36969 1-197): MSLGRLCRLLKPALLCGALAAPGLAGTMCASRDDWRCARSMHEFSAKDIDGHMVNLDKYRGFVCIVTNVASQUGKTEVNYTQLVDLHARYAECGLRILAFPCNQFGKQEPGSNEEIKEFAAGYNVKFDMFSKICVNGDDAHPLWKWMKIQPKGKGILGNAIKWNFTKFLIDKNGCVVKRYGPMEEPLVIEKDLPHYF
Description: Competitive binding to GPX4 in A549 cells with biotinylated analog, streptavidin pull-down. Further details: host or cells: A549. The following applies: 2 μM for 2 hours before 2 μM compound 21 for 5 hours. On the procedure: Binding of compounds 32 and 69 to the target protein GPX4 in cultured cells can be assessed by the use of biotinylated analogs such as compound 21 that retain their cellular activities. Cells or tissue simultaneously or sequentially exposed to compounds 32 and 69 and biotinylated analog 21 can be analyzed for exogenous biotinylated proteins and thereby enables the identification of cellular targets of compounds 32 and 69. The A549 cancer cell line (ATCC) was exposed to 2 μM of compounds 32 and 69 for 2 hours followed by the addition of 2 μM of compound 21 for 5 hours. Cells were collected and lysed by IGEPAL CA-630 and sodium dodecyl sulfate (SDS) in the presence of a protease inhibitor cocktail (4693132001, Roche). The soluble protein fraction was isolated and incubated with Streptavidin Mag Sepharose (28-9857-38, Cytiva) at 4° C. for 16 hours. The streptavidin-unbound fraction was collected allowing for the quantification of the proportion of GPX4 depleted by the biotinylated compound 21 relative to samples not treated with Streptavidin Mag Sepharose. Furthermore, biotinylated proteins were eluted from Streptavidin Mag Sepharose by head-denaturation in the presence of excess biotin (5 mM). […] Chemiluminescent following HRP substrate addition (34580, ThermoFisher) was detected by the ChemiDoc XRS+ System (Bio-Rad). […]

Take `CCOC(=O)c1ccc(NC2CCCCC2)c(N)c1` [ferrostatin-1, reference compound]: in assay [1], the “inhibition by ferrostatin-1 of compound-induced cell death” value is reported as “potently inhibits cell death”.
As for `C#CC(F)(F)[C@]1(O)CC[C@H]2[C@@H]3CCC4=CC(=NOCCO)CCC4=C3[C@@H](c3ccc(C4CC4)cc3)C[C@@]21C` [Compound 18, (8S,11R,13S,14S,17S)-11-(4-cyclopropylphenyl)-17-(1,1-difluoroprop-2-yn-1-yl)-17-hydroxy-13-methyl-1,2,6,7,8,11,12,13,14,15,16,17-dodecahydro-3H-cyclopenta[a]phenanthren-3-one O-(2-hydroxyethyl)oxime], the results for the half-inhibitory concentration (IC50) with senescent HEPG2 cells and with senescent A549 cells were 0.1 to 10 nM and 10 to 100 nM, respectively. In assay [1], the “inhibition by ferrostatin-1 of compound-induced cell death” value was “potently inhibits cell death induced by compounds 18 and 32”.
Take `C#CC(F)(F)[C@]1(O)CC[C@H]2[C@@H]3CCC4=C/C(=N/NC(=O)NC5CC5)CCC4=C3[C@@H](c3ccc(C4CC4)cc3)C[C@@]21C` [Compound 69, (E)-N-cyclopropyl-2-((8S,11R,13S,14S,17S)-11-(4-cyclopropylphenyl)-17-(1,1-difluoroprop-2-yn-1-yl)-17-hydroxy-13-methyl-1,2,6,7,8,11,12,13,14,15,16,17-dodecahydro-3H-cyclopenta[a]phenanthren-3-ylidene)hydrazine-1-carboxamide]: on GPX4, the “effect of pre-treatment on compound 21 dependent depletion of GPX4 protein” value was “reduces the compound 21 dependent depletion of GPX4 protein”.

Usually IC50 stands for the midpoint of a concentration-inhibition curve.
